The molecules below were run against skeletal myofibrils (myosin ATPase) (assay: Skeletal Myofibril ATPase Assay). Conditions: Table 4A.
Format: biochemical
How it was run: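 IC50 came from four-parameter logistic fits, bottom constrained ≥0, of (Max−Min) A340 values normalised to 1% DMSO controls. Readings were taken kinetically over 45 min at 1.5-2 min intervals, with ADP from myofibril myosin ATPase coupled through PK-LDH to NADH oxidation. Buffer was pCa (PIPES/CaCl2/EGTA), pH 7.0.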
`CCNC(=O)Cn1nc(-c2ccc(OC(F)F)[n+]([O-])c2)ccc1=O` [Compound I-65, 2-(difluoromethoxy)-5-(1-(2-(ethylamino)-2-oxoethyl)-6-oxo-1,6-dihydropyridazin-3-yl)pyridine 1-oxide] was tested, and the IC50 was > 100 µM.
`CCNC(=O)Cn1nc(-c2ccc(OCCC(F)(F)F)nc2)ccc1=O` [Compound I-10, N-ethyl-2-[6-oxo-3-[6-(3,3,3-trifluoropropoxy)pyridin-3-yl]-1,6-dihydropyridazin-1-yl]acetamide] gave an IC50 of 10 to 100 µM.
`CC(C)[C@@](C)(C#N)NC(=O)Cn1nc(-c2ccc(OC(F)F)nc2)ccc1=O` (stereo in doubt) [Compound I-34, N-(2-cyano-3-methylbutan-2-yl)-2-(3-(6-(difluoromethoxy)pyridin-3-yl)-6-oxopyridazin-1(6H)-yl)acetamide] was tested, and the IC50 was 10 to 100 µM.
For `CCNC(=O)Cn1nc(-c2ccc(NC3COC3)nc2)ccc1=O` [Compound I-44, N-ethyl-2-(3-(6-(oxetan-3-ylamino)pyridin-3-yl)-6-oxopyridazin-1(6H)-yl)acetamide], the IC50 was < 10 µM.
For `CCNC(=O)Cn1nc(-c2ccc(NC34CCC(CC3)CC4)nc2)ccc1=O` [Compound I-41, 2-(3-(6-(bicyclo[2.2.2]octan-1-ylamino)pyridin-3-yl)-6-oxopyridazin-1(6H)-yl)-N-ethylacetamide], the IC50 was 10 to 100 µM.

Same assay, conditions: Table 4B
In the case of `O=C(Cn1nc(-c2ccc(OC(F)F)cc2)ccc1=O)NC1CCC1` [II-9, N-cyclobutyl-2-(3-(4-(difluoromethoxy)phenyl)-6-oxopyridazin-1(6H)-yl)acetamide], the IC50 is reported as < 10 µM.
In the case of `CCNC(=O)Cn1nc(-c2ccc(NC(C)=O)cc2)ccc1=O` [II-2, 2-(3-(4-acetamidophenyl)-6-oxopyridazin-1(6H)-yl)-N-ethylacetamide], the IC50 is reported as < 10 µM.
`CCCCNC(=O)Cn1nc(-c2ccc(OC(F)F)cc2)ccc1=O` [II-17, N-butyl-2-(3-(4-(difluoromethoxy)phenyl)-6-oxopyridazin-1(6H)-yl)acetamide] gave an IC50 of 10 to 100 µM.
In the case of `CC(=O)Nc1ccc(-c2ccc(=O)n(CC(=O)NC(C)C)n2)cc1` [II-14, 2-(3-(4-acetamidophenyl)-6-oxopyridazin-1(6H)-yl)-N-isopropylacetamide], the IC50 is reported as 10 to 100 µM.

Same assay, conditions: Table 4C
In the case of `COc1ccc(-c2ccc(=O)n(CC(=O)NCc3ccc(F)cc3)n2)c(F)c1` [IIIb-46, 2-(3-(2-fluoro-4-methoxyphenyl)-6-oxopyridazin-1(6H)-yl)-N-(4-fluorobenzyl)acetamide], the IC50 is reported as > 100 µM.
`O=C(Cn1nc(-c2ccccc2)ccc1=O)NCc1ccccc1Cl` [IIIc-47, N-(2-chlorobenzyl)-2-(6-oxo-3-phenylpyridazin-1(6H)-yl)acetamide] was tested, and the IC50 was 10 to 100 µM.
For `COc1ccc(-c2ccc(=O)n(CC(=O)NCc3cc(F)ccc3Cl)n2)cc1` [IIIa-7, N-(2-chloro-5-fluorobenzyl)-2-(3-(4-methoxyphenyl)-6-oxopyridazin-1(6H)-yl)acetamide], the IC50 was < 10 µM.
`O=C(Cn1nc(-c2ccc(F)cc2)ccc1=O)NCCc1c[nH]c2ccccc12` [IIIc-44, N-(2-(1H-indol-3-yl)ethyl)-2-(3-(4-fluorophenyl)-6-oxopyridazin-1(6H)-yl)acetamide] was tested, and the IC50 was 10 to 100 µM.
For `CCOc1ccc(-c2ccc(=O)n(CC(=O)NCc3ccccc3Cl)n2)cc1` [IIIa-1, N-(2-chlorobenzyl)-2-(3-(4-ethoxyphenyl)-6-oxopyridazin-1(6H)-yl)acetamide], the IC50 was < 10 µM.
In the case of `O=C(Cn1nc(-c2ccccc2)ccc1=O)Nc1cccc2[nH]ccc12` [IIIc-50, N-(1H-indol-4-yl)-2-(6-oxo-3-phenylpyridazin-1(6H)-yl)acetamide], the IC50 is reported as 10 to 100 µM.
`CC[C@H](C)NC(=O)Cn1nc(-c2ccc(Cl)cc2)ccc1=O` [IIIc-30, (S)-N-(sec-butyl)-2-(3-(4-chlorophenyl)-6-oxopyridazin-1(6H)-yl)acetamide] gave an IC50 of 10 to 100 µM.
With `COc1ccc(-c2ccc(=O)n(CC(=O)Nc3ccc4c(c3)OCCO4)n2)cc1` [IIIb-16, N-(2,3-dihydrobenzo[b][1,4]dioxin-6-yl)-2-(3-(4-methoxyphenyl)-6-oxopyridazin-1(6H)-yl)acetamide] the IC50 was < 10 µM.
